Measurements from the supplement of paper PMC10307832.

Tests used:
Test in all cases: relative viability (nuclei count vs DMSO), 5 days (fraction); higher = more cells survive
Bosutinib + Lapatinib = compound: COc1cc(Nc2c(C#N)cnc3cc(OCCCN4CCN(C)CC4)c(OC)cc23)c(Cl)cc1Cl [Bosutinib] + CS(=O)(=O)CCNCc1ccc(-c2ccc3ncnc(Nc4ccc(OCc5cccc(F)c5)c(Cl)c4)c3c2)o1 [Lapatinib] (partner 2 µM)
Outline: (§1)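 Relative viability is defined as nuclei in treated wells over nuclei in vehicle wells. Duplicate plates were run and medians reported. Lung cancer cell lines in 1536-well plates were dosed by pin tool one day after seeding, with one drug or with a fixed anchor-drug dose plus five library-drug doses (not always all listed) in √10 steps, and nuclei were counted after 5 days.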

Bosutinib + Alpelisib = compound: COc1cc(Nc2c(C#N)cnc3cc(OCCCN4CCN(C)CC4)c(OC)cc23)c(Cl)cc1Cl [Bosutinib] + Cc1nc(NC(=O)N2CCC[C@H]2C(N)=O)sc1-c1ccnc(C(C)(C)C(F)(F)F)c1 [Alpelisib] (partner 2 µM)
Outline: as §1

Bosutinib + Dasatinib = compound: COc1cc(Nc2c(C#N)cnc3cc(OCCCN4CCN(C)CC4)c(OC)cc23)c(Cl)cc1Cl [Bosutinib] + Cc1nc(Nc2ncc(C(=O)Nc3c(C)cccc3Cl)s2)cc(N2CCN(CCO)CC2)n1 [Dasatinib] (partner 0.075 µM)
Outline: as §1

Bosutinib + Phenformin = compound: COc1cc(Nc2c(C#N)cnc3cc(OCCCN4CCN(C)CC4)c(OC)cc23)c(Cl)cc1Cl [Bosutinib] + N=C(N)NC(=N)NCCc1ccccc1 [Phenformin] (partner 250 µM)
Outline: as §1

Bosutinib + AZD7762 = compound: COc1cc(Nc2c(C#N)cnc3cc(OCCCN4CCN(C)CC4)c(OC)cc23)c(Cl)cc1Cl [Bosutinib] + NC(=O)Nc1cc(-c2cccc(F)c2)sc1C(=O)N[C@H]1CCCNC1 [AZD7762] (partner 0.2 µM)
Outline: as §1

Cell Line	relative viability (Bosutinib + Lapatinib; first compound 0.01 µM)	relative viability (Bosutinib + Lapatinib; first compound 0.03162 µM)	relative viability (Bosutinib + Lapatinib; first compound 0.1 µM)	relative viability (Bosutinib + Lapatinib; first compound 1 µM)	relative viability (Bosutinib + Alpelisib; first compound 0.01 µM)	relative viability (Bosutinib + Alpelisib; first compound 0.03162 µM)	relative viability (Bosutinib + Alpelisib; first compound 0.1 µM)	relative viability (Bosutinib + Alpelisib; first compound 1 µM)	relative viability (Bosutinib + Dasatinib; first compound 0.01 µM)	relative viability (Bosutinib + Dasatinib; first compound 0.03162 µM)	relative viability (Bosutinib + Dasatinib; first compound 0.1 µM)	relative viability (Bosutinib + Dasatinib; first compound 1 µM)	relative viability (Bosutinib + Phenformin; first compound 0.01 µM)	relative viability (Bosutinib + Phenformin; first compound 0.03162 µM)	relative viability (Bosutinib + Phenformin; first compound 0.1 µM)	relative viability (Bosutinib + Phenformin; first compound 1 µM)	relative viability (Bosutinib + AZD7762; first compound 0.01 µM)	relative viability (Bosutinib + AZD7762; first compound 0.03162 µM)	relative viability (Bosutinib + AZD7762; first compound 0.1 µM)	relative viability (Bosutinib + AZD7762; first compound 1 µM)
201T	1.03	1.05	1.01	0.96	1	1.02	1.01	0.909	0.612	0.571	0.57	0.544	0.444	0.421	0.449	0.425	0.581	0.654	0.603	0.62
A-427	1.02	0.972	1	1.03	1.03	1.11	1.03	0.978	0.767	0.843	0.665	0.732	0.46	0.369	0.331	0.26	0.777	0.691	0.661	0.643
ABC-1	1.26	1.2	1.05	0.786	0.938	0.944	0.897	0.731	0.548	0.605	0.65	0.488	0.186	0.196	0.224	0.26		0.873	0.915	0.677
BEN	0.619	0.699	0.785	0.52	0.986	1.04	0.888	0.669	0.315	0.339	0.344	0.368	0.254	0.257	0.253	0.25	0.608	0.697	0.675	0.658
CAL-12T	0.755	0.706	0.82	0.551	1.09	1.09	1.2	0.787	0.383	0.426	0.417	0.467	0.567	0.584	0.52	0.382	0.576	0.529	0.596	0.515
COR-L23	1.01	0.892	1.04	1.08	0.803	0.799	0.747	0.836	0.551	0.537	0.501	0.619	0.432	0.451	0.449	0.496				
COR-L 105	0.384	0.403	0.391	0.3	0.869	1.27	0.871	0.565	0.383	0.363	0.397	0.353	0.55	0.522	0.519	0.357				
ChaGo-K-1									0.662	0.56	0.637	0.6	0.536	0.503	0.497	0.515	0.919	0.89	0.923	0.852
EKVX	0.231	0.216	0.242	0.172	0.894	0.89	0.847	0.476	0.549	0.505	0.611	0.491	0.213	0.248	0.236	0.223	0.441	0.751	0.735	0.656
EMC-BAC-2	0.878	0.835	0.86	0.873	0.757	0.731	0.723	0.657	0.356	0.325	0.347	0.328	0.464	0.545	0.488	0.376	1.18	1.11	1.13	1.09
EPLC-272H	1.19	0.931	1.02	1.04	0.937	1.15	1.03	0.854	0.476	0.425	0.447	0.409	0.275	0.353	0.331	0.335	0.225	0.244	0.18	0.232
H3255	0.251	0.238	0.235	0.258	0.686	0.743	0.669	0.198	0.369	0.381	0.364	0.288	0.361	0.359	0.356	0.309	0.846	1.02	0.949	0.517
HARA	0.7	0.657	0.757	0.76	0.842	0.817	0.874	0.502	0.303	0.296	0.304	0.385	0.522	0.431	0.376	0.45	0.304	0.308	0.297	0.644
HCC-15	0.901	0.858	0.829	0.812	0.844	0.9	0.924	0.85	0.651	0.662	0.678	0.674	0.478	0.466	0.471	0.389	1.23	1.12	1.23	1.23
HCC-44	1.03	0.96	0.982	1.07	0.749	0.877	0.761	0.772					0.247	0.278	0.185	0.388	1.02	1.01	1.01	1.04
HCC-78	0.468	0.798	0.817	0.7	0.349	0.31	0.393	0.32	0.356	0.478	0.46	0.373	0.665	0.703	0.802	0.7	0.655	0.788	0.781	0.584

Cell Line	relative viability (Bosutinib + Lapatinib; first compound 0.01 µM)	relative viability (Bosutinib + Lapatinib; first compound 0.03162 µM)	relative viability (Bosutinib + Lapatinib; first compound 0.1 µM)	relative viability (Bosutinib + Lapatinib; first compound 1 µM)	relative viability (Bosutinib + Alpelisib; first compound 0.01 µM)	relative viability (Bosutinib + Alpelisib; first compound 0.03162 µM)	relative viability (Bosutinib + Alpelisib; first compound 0.1 µM)	relative viability (Bosutinib + Alpelisib; first compound 1 µM)	relative viability (Bosutinib + Dasatinib; first compound 0.01 µM)	relative viability (Bosutinib + Dasatinib; first compound 0.03162 µM)	relative viability (Bosutinib + Dasatinib; first compound 0.1 µM)	relative viability (Bosutinib + Dasatinib; first compound 1 µM)	relative viability (Bosutinib + Phenformin; first compound 0.01 µM)	relative viability (Bosutinib + Phenformin; first compound 0.03162 µM)	relative viability (Bosutinib + Phenformin; first compound 0.1 µM)	relative viability (Bosutinib + Phenformin; first compound 1 µM)	relative viability (Bosutinib + AZD7762; first compound 0.01 µM)	relative viability (Bosutinib + AZD7762; first compound 0.03162 µM)	relative viability (Bosutinib + AZD7762; first compound 0.1 µM)	relative viability (Bosutinib + AZD7762; first compound 1 µM)
IA-LM	0.811	0.848	0.92	0.798	0.832	0.733	0.931	0.674												
LCLC-103H					0.992	1.06	0.94	0.871	0.513	0.502	0.567	0.449	0.338	0.322	0.327	0.409	0.854	0.74	0.827	0.771
NCI-H441					0.475	0.689	0.733	1.11	0.55	0.667	0.676	0.848	0.946	0.869	0.821	0.657	1.3	1.02	1.05	1.09
NCI-H520	1.01	0.86	0.855	0.639	0.96	0.786	0.968	0.66	0.226	0.232	0.199	0.22	0.677	0.64	0.507	0.393				
NCI-H522									0.89	0.691	0.794	0.979	0.657	0.623	0.63	0.613	0.794	0.714	0.698	0.897
NCI-H661	0.489	0.511	0.468	0.354	0.407	0.881	0.88	0.477	0.947	0.883	0.884	0.814	0.281	0.3	0.287	0.269				
NCI-H1650	0.835	0.731	0.745	0.636					0.357	0.317	0.375	0.457	0.434	0.344	0.339	0.318				
NCI-H1703	1.04	1.1	0.825	0.653	0.351	0.378	0.294	0.261									0.12	0.132	0.124	0.133
NCI-H2009	0.905	1.02	1.05	0.716	1.2	1.15	1.1	0.767	0.41	0.362	0.416	0.344	0.53	0.49	0.423	0.346				
NCI-H2023	0.967	0.819	0.787	0.793	0.581	0.655	0.538	0.426	0.683	0.599	0.65	0.583	0.415	0.4	0.376	0.295				
NCI-H2228	1.19		1.18	1.04	0.772		0.75	0.587	0.494	0.474	0.56	0.62	0.308	0.236	0.284	0.326				
SK-LU-1	0.808	0.919	1	0.586	0.949	1.31	1.12	0.46	0.221	0.174	0.186	0.255	0.538	0.473	0.507	0.303				
SK-MES-1	0.435	0.512	0.555	0.505	0.876	0.971	0.999	1.06	0.372	0.412	0.393	0.392	0.66	0.686	0.632	0.502				
SW 900									0.774		0.682	0.749	0.577		0.686	0.458	0.624	0.589	0.581	0.482
SW 1573	1.32	1.08	1.14	0.935	0.834	0.787	0.767	0.65	0.459	0.553	0.505	0.583	0.411	0.357	0.358	0.27				
UMC-11	1.1	1.03	1.03	0.821	1	1.04	0.934	0.847	0.409	0.454	0.456	0.455	0.321	0.312	0.312	0.247				
